Measurements taken from ChEMBL document CHEMBL5120875, “Discovery of diarylheptanoids that activate α7 nAchR-JAK2-STAT3 signaling in macrophages with anti-inflammatory activity in vitro and in vivo” (Bioorg Med Chem, 2022).
Activity calls are given as the source filed them.

Experiments:
RAW264.7 [1] = test: Activation of NF-kappaB signalling pathway in mouse RAW264.7 cells assessed as suppression of LPS-induced IkappaBalpha phosphorylation pretreated with compound for 2 hrs followed by LPS-stimulation for 30 mins by Western blot analysis; format: cell-based; conditions: filed as activator, dose 0.2-5 µM, time 2.5 hrs
RAW264.7 [2] = test: Antiinflammatory activity in mouse RAW264.7 cells assessed as inhibition of LPS-induced IL-6 production at 10 uM preincubated for 2 hrs followed by LPS-stimulation for 24 hrs by ELISA; format: functional, cell-based; conditions: time 26.0 hrs
RAW264.7 [3] = test: Antiinflammatory activity in mouse RAW264.7 cells assessed as inhibition of LPS-induced IL-1beta production at 10 uM preincubated for 2 hrs followed by LPS-stimulation for 24 hrs by ELISA; format: functional, cell-based; conditions: time 26.0 hrs
RAW264.7 [4] = test: Inhibition of LPS-induced NO production in mouse RAW264.7 cells at 5 uM preincubated with compound for 2 hrs followed by LPS stimulation for 24 hrs by Griess reagent based assay relative to control; format: functional; conditions: time 26 hrs
RAW264.7 [5] = test: Inhibition of LPS-induced NO production in mouse RAW264.7 cells preincubated with compound for 2 hrs followed by LPS stimulation for 24 hrs by Griess reagent based assay; format: functional, cell-based
RAW264.7 [6] = test: Cytotoxicity against mouse RAW264.7 cells assessed as effect on cell viability at 5 uM incubated for 24 hrs by alamar blue reagent based fluorescence assay; format: toxicity; conditions: raw264.7, 24 h
RAW264.7 [7] = test: Antiinflammatory activity in mouse RAW264.7 cells assessed as inhibition of LPS-induced IL-6 production preincubated for 2 hrs followed by LPS-stimulation for 24 hrs by ELISA; format: functional, cell-based; conditions: dose 0.2-5 µM, time 26.0 hrs, DDE = dose-dependent effect
RAW264.7 [8] = test: Antiinflammatory activity in mouse RAW264.7 cells assessed as inhibition of LPS-induced IL-1beta production preincubated for 2 hrs followed by LPS-stimulation for 24 hrs by ELISA; format: functional, cell-based; conditions: dose 0.2-5 µM, time 26.0 hrs, DDE = dose-dependent effect
RAW264.7 [9] = test: Antiinflammatory activity in mouse RAW264.7 cells assessed as decrease in LPS-induced IL-6 mRNA expression at 0.2 to 5 uM preincubated for 2 hrs followed by LPS-stimulation for 24 hrs by qRT-PCR analysis; format: functional, cell-based; conditions: dose 0.2-5 µM, time 26.0 hrs
RAW264.7 [10] = test: Antiinflammatory activity in mouse RAW264.7 cells assessed as decrease in LPS-induced IL-1beta mRNA expression at 0.2 to 5 uM preincubated for 2 hrs followed by LPS-stimulation for 24 hrs by qRT-PCR analysis; format: functional, cell-based; conditions: dose 0.2-5 µM, time 26.0 hrs
RAW264.7 [11] = test: Antiinflammatory activity in mouse RAW264.7 cells assessed as inhibition of LPS-induced iNOS mRNA expression preincubated for 2 hrs followed by LPS stimulation for 24 hrs by qRT-PCR analysis; format: functional, cell-based; conditions: dose 0.2-5 µM, time 26.0 hrs, DDE = dose-dependent effect
Peritoneal macrophage = test: Antiinflammatory activity in mouse peritoneal macrophages assessed as reduction in LPS-induced NO production at 0.2 to 5 uM preincubated for 2 hrs followed by LPS-stimulation for 22 hrs by Griess reagent based assay; format: functional, cell-based; conditions: dose 0.2-5 µM, time 24.0 hrs
THP-1 [12] = test: Antiinflammatory activity in human THP-1 monocytes assessed as reduction in LPS/Interferon-gamma NO production at 0.2 to 5 uM pretreated with PMA for 24 hrs followed by compound addition 2 hrs and stimulated with LPS/Interferon-gamma for 22 hrs by Griess reagent based assay; format: functional, cell-based; conditions: dose 0.2-5 µM
RAW264.7 [13] = test: Activation of NF-kappaB signalling pathway in mouse RAW264.7 cells assessed as suppression of LPS-induced IkappaBalpha degradation pretreated with compound for 2 hrs followed by LPS-stimulation for 30 mins by Western blot analysis; format: cell-based; conditions: filed as activator, dose 0.2-5 µM, time 2.5 hrs, DDE = dose-dependent effect
RAW264.7 [14] = test: Activation of NF-kappaB signalling pathway in mouse RAW264.7 cells assessed as decrease in LPS-induced AKT phosphorylation at 0.2 to 5 uM pretreated with compound for 2 hrs followed by LPS-stimulation for 30 mins by Western blot analysis; format: cell-based; conditions: filed as activator, dose 0.2-5 µM, time 2.5 hrs
[15] = target: T1, Signal transducer and activator of transcription 1 (Mus musculus) (UniProt P42225); test: Inhibition of LPS-induced STAT1 phosphorylation in mouse RAW264.7 cells pretreated with compound for 2 hrs followed by LPS-stimulation and measured after 30 mins by immunoblot analysis; format: cell-based; conditions: dose 0.2-5 µM, time 2.5 hrs, DDE = dose-dependent effect
T1 sequence (whole entry): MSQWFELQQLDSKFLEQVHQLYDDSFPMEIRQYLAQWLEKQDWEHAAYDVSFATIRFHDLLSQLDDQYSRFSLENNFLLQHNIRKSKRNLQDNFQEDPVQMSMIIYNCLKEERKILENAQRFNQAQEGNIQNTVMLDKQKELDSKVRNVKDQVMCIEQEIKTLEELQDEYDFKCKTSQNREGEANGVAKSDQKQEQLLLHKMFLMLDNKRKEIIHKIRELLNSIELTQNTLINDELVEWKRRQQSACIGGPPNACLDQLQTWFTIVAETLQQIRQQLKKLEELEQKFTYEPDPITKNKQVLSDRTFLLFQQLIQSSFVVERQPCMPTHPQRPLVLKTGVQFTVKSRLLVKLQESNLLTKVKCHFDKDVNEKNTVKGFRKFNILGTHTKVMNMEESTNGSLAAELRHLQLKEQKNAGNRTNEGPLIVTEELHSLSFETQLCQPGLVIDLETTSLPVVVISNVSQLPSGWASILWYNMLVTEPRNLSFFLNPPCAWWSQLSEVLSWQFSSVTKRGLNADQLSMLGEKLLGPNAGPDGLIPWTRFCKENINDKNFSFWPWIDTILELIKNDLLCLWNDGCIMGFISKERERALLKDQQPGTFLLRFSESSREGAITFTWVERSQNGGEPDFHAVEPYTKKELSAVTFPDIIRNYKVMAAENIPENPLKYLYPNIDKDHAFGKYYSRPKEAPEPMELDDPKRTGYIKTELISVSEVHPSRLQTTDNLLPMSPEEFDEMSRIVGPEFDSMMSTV

RAW264.7 [16] = test: Antiinflammatory activity in LPS-induced mouse RAW264.7 cells assessed as enhancement of JAK2 phosphorylation pretreated with compound for 2 hrs followed by LPS-stimulation and measured after 30 mins by Western blot analysis; format: functional, cell-based; conditions: dose 0.2-5 µM, time 2.5 hrs, DDE = dose-dependent effect
RAW264.7 [17] = test: Antiinflammatory activity in LPS-induced mouse RAW264.7 cells assessed as enhancement of STAT3 phosphorylation pretreated with compound for 2 hrs followed by LPS-stimulation and measured after 30 mins by Western blot analysis; format: functional, cell-based; conditions: dose 0.2-5 µM, time 2.5 hrs, DDE = dose-dependent effect
THP-1 [18] = test: Antiinflammatory activity in LPS/IFNgamma-stimulated human THP-1 monocytes assessed as inhibition of NO production pretreated with PMA for 24 hrs and incubated alpha-bungarotoxin for 1 hr followed by compound addition for 2 hrs and further stimulated with LPS/INF-gamma for 22 hrs by Griess reagent based assay; format: functional, cell-based
[19] = target: Neuronal acetylcholine receptor subunit alpha-7 (Mus musculus) (UniProt P49582); test: Binding affinity to alpha7 nAChR in mouse RAW264.7 cells assessed as increase in thermal stability at 200 uM incubated for 30 min by CETSA; format: cell-based; conditions: filed as agonist
Sequence of Neuronal acetylcholine receptor subunit alpha-7 (Mus musculus) (P49582 whole entry): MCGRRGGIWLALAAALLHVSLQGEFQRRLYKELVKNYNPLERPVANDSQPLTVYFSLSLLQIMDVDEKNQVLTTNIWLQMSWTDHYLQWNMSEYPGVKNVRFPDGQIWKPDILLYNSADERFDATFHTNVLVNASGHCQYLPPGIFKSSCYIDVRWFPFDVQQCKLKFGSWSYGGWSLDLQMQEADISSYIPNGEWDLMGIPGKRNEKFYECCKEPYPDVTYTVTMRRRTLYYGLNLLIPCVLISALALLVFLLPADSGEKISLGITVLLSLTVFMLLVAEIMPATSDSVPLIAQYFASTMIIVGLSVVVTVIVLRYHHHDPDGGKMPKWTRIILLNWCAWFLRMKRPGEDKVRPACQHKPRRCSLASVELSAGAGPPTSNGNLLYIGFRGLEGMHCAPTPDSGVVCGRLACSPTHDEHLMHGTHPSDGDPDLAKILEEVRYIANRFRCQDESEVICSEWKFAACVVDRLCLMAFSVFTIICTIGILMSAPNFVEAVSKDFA

RAW264.7 [20] = test: Antiinflammatory activity in mouse RAW264.7 cells assessed as inhibition of LPS-induced iNOS protein expression preincubated for 2 hrs followed by LPS stimulation for 24 hrs by qRT-PCR analysis; format: functional, cell-based; conditions: time 26.0 hrs, DDE = dose-dependent effect
RAW264.7 [21] = test: (§1) Antiinflammatory activity in LPS-induced mouse RAW264.7 cells assessed as enhancement of JAK2 phosphorylation at 0.2 to 5 uM pretreated with alpha7 nAChR antagonist alpha-bungarotoxin for 1 hr followed by compound treatment for 2 hrs and further stimulated with LPS for 30 mins by Western blot analysis; format: functional, cell-based; conditions: dose 0.2-5 µM, time 2.5 hrs
RAW264.7 [22] = test: as §1, with “STAT3” for “JAK2”; format: functional, cell-based; conditions: dose 0.2-5 µM, time 2.5 hrs
Mus musculus [23] = test: (§2) Antiinflammatory activity in LPS-induced ICR sepsis mouse model assessed as attenuation of LPS-induced inflammatory cell infiltration at 5 mg/kg, ip pretreated with compound for 5 days followed by LPS stimulation and measured 2 hrs post last dose by hematoxylin and eosin staining based microscopic analysis; format: functional, organism-based; conditions: time 5.0 day
Mus musculus [24] = test: Antiinflammatory activity in LPS-induced ICR sepsis mouse model assessed as attenuation of LPS-induced lung damage at 5 mg/kg, ip pretreated with compound for 5 days followed by LPS stimulation and measured 2 hrs post last dose by hematoxylin and eosin staining based microscopic analysis; format: functional, organism-based; conditions: time 5.0 day
RAW264.7 [25] = test: as §1, with “LPS-stimulated” for “LPS-induced”, “inhibition” for “enhancement”, “IkappaBalpha degradation” for “JAK2 phosphorylation”, “antagonist,” for “antagonist”; format: functional, cell-based; conditions: dose 0.2-5 µM, time 2.5 hrs
RAW264.7 [26] = test: Antiinflammatory activity in LPS-stimulated mouse RAW264.7 cells assessed as inhibition of NO production at 0.2 to 5 uM pretreated with alpha7 nAChR antagonist alpha-bungarotoxin for 1 hr followed by compound treatment for 2 hrs and further stimulated with LPS for […] reagent based assay; format: functional, cell-based; conditions: dose 0.2-5 µM
Mus musculus [27] = test: Antiinflammatory activity in LPS-induced ICR sepsis mouse model assessed as suppression of LPS-induced serum interleukin-1beta level at 5 to 20 mg/kg, ip pretreated with compound for 5 days followed by LPS stimulation and measured 2 hrs post last dose by ELISA analysis; format: functional, organism-based; conditions: dose 5-20 mg/kg, time 5.0 day
Mus musculus [28] = test: Antiinflammatory activity in LPS-induced ICR sepsis mouse model assessed as high survival rate at 5 to 20 mg/kg, ip pretreated with compound for 5 days followed by LPS stimulation and measured 2 hrs post last dose; format: functional, organism-based; conditions: dose 5-20 mg/kg, time 5.0 day
Mus musculus [29] = test: Antiinflammatory activity in LPS-induced ICR sepsis mouse model assessed as suppression of LPS-induced serum interleukin-6 level at 5 to 20 mg/kg, ip pretreated with compound for 5 days followed by LPS stimulation and measured 2 hrs post last dose by ELISA analysis; format: functional, organism-based; conditions: dose 5-20 mg/kg, time 5.0 day
Mus musculus [30] = test: as §2, with “at 5 to 20 mg/kg, ip” for “at 5 mg/kg, ip”; format: functional, organism-based; conditions: dose 5-20 mg/kg, time 5.0 day
Mus musculus [31] = test: Antiinflammatory activity in LPS-induced ICR sepsis mouse model assessed as attenuation of LPS-induced lung damage at 5 to 20 mg/kg, ip pretreated with compound for 5 days followed by LPS stimulation and measured 2 hrs post last dose by hematoxylin and eosin staining based microscopic analysis; format: functional, organism-based; conditions: dose 5-20 mg/kg, time 5.0 day

Cc1ccc(S(=O)(=O)/C=C/C#N)cc1
active: Activity (RAW264.7 [1]) | Activity (RAW264.7 [2]) | Activity (RAW264.7 [3])

COc1ccc(/C=C/C=C/C(=O)/C=C/c2ccc(OC)c(O)c2)c(OC)c1
106%: inhibition at 5 µM (RAW264.7 [4])
550 nM: IC50 (RAW264.7 [5])
active: Activity (RAW264.7 [7]) Dde | Activity (RAW264.7 [8]) Dde | Activity (RAW264.7 [9]) | Activity (RAW264.7 [10]) | Activity (RAW264.7 [11]) Dde | Activity (Peritoneal macrophage) | Activity (THP-1 [12]) | Activity (RAW264.7 [1]; DDE = dose-dependent effect) Dde | Activity (RAW264.7 [13]) Dde | Activity (RAW264.7 [14]) | inhibition [15] Dde | Activity (RAW264.7 [16]) Dde | Activity (RAW264.7 [17]) Dde | Activity (THP-1 [18]) | Activity [19] | Activity (RAW264.7 [20]) Dde | Activity (RAW264.7 [21]) | Activity (RAW264.7 [22])
Non-Toxic: Activity (RAW264.7 [6])

C[C@@H]1C[C@H]2[C@@H]3CCC4=CC(=O)C=C[C@]4(C)[C@@]3(F)[C@@H](O)C[C@]2(C)[C@@]1(O)C(=O)CO
active: Activity (Mus musculus [23]) | Activity (Mus musculus [24])

CC(=O)Oc1ccc(CC[C@H](CCCCc2ccccc2)OC(C)=O)cc1OC(C)=O
Non-Toxic: Activity (RAW264.7 [6])
93.2%: inhibition at 5 µM (RAW264.7 [4])
320 nM: IC50 (RAW264.7 [5])
active: Activity (RAW264.7 [7]) Dde | Activity (RAW264.7 [8]) Dde | Activity (RAW264.7 [9]) | Activity (RAW264.7 [10]) | Activity (RAW264.7 [11]) Dde | Activity (RAW264.7 [1]; DDE = dose-dependent effect) Dde | Activity (RAW264.7 [13]) Dde | Activity (RAW264.7 [14]) | inhibition [15] Dde | Activity (RAW264.7 [16]) Dde | Activity (RAW264.7 [17]) Dde | Activity (RAW264.7 [25]) | Activity (RAW264.7 [26]) | Activity (Mus musculus [27]) | Activity (Mus musculus [28]) | Activity (Mus musculus [29]) | Activity (Mus musculus [30]) | Activity (Mus musculus [31]) | Activity (RAW264.7 [20]) Dde | Activity (RAW264.7 [21]) | Activity (RAW264.7 [22])
